Laboratory results from patent US20230295197A1, “STAT5 and STAT6 Degraders and Uses Thereof” (REGENTS OF THE UNIVERSITY OF MICHICAN, priority 2022, published 2023).
Where two headings read alike, the source gives them in different places.

Tested on: STAT5
Assay: Immunoblotting (Western blot) analysis of STAT5 degradation efficiency of degraders in treated cells
Type: cell-based
Description: Evaluation of the degradation efficiency of degraders may be accomplished by immunoblotting analysis. The representative general protocol is the following:
Cells are maintained in the appropriate culture medium with 10% FBS at 37° C. and an atmosphere of 5% CO2. Cell lines are used within three months of thawing fresh vials. Cells are lysed 1× Cell Lysis Buffer (Cell Signaling Technology, #9803), resolved by SDS-PAGE NuPAGE gel (Thermo Fisher Scientific), and transferred to a PVDF membrane (Millipore). Membranes are blocked using Odyssey TBS Blocker Buffer (LI-COR). IRDye 680RD and 800CW Dye-labeled secondary antibodies (LI-COR) are used. The washed membranes are scanned using Odyssey CLx imager (LI-COR). The intensity of Western blot signaling is quantitated using the Odyssey software. Primary antibodies used are: STAT5 Rabbit mAb (Cell Signaling Technology, #94205), STAT6 Rabbit mAb (Cell Signaling Technology, #5397) and GAPDH mouse monoclonal antibody (Santa Cruz Biotechnology, sc-47724).
To evaluate the degradation efficiency of degraders, immunoblotting analysis was performed. The general protocol is the following.
About 1 million cells for each data point were treated with compounds at indicated concentrations and durations. Untreated and treated cells in cell culture medium were transferred into tubes, followed by centrifugation at 3,000 rpm and 4° C. for 6 min Supernatants were removed from tubes and radioimmunoprecipitation assay (RIPA) lysis buffer supplemented with 1% protease inhibitor cocktail (Fisher Scientific cat. PI87786) and phosphatase inhibitor (Roche cat. 04906837001) were added to tubes containing the remaining cell pellets. The tubes were then left on ice for 30 min and placed in a −80° C. freezer. Subsequently they were thawed in 37° C. water, then centrifuged at 14,000 rpm for 15 min and the cell lysates transferred to new tubes. The concentration of total proteins in each tube was calculated using the Pierce BCA protein Assay kit (cat. 23225). Based on the calculated protein concentration, cell lysates containing approximately the same amount of proteins were transferred to new tubes, then distilled water and 4× Protein Sample Loading Buffer for Western Blots (LI-COR cat. 928-40004) supplemented with 20% of mercaptoethanol (Sigma Aldrich cat. M6250) were added on ice. The cell lysates were then reduced and denatured at 95° C. for 5 min. From the tubes containing cell lysates an equal amount of protein samples (20-40 μg) was loaded into precast 8%, 10%, 4%-12%, or 4%-20% Tris-glycine gels (Novex) filled with Tris-glycine SDS running buffer. After the proteins were resolved, they were transferred onto Immobile-FL PVDF Membrane (Millipore Sigma cat. IPFL00010), using Mini Trans-Blot Electrophoretic Transfer Cell (Bio-Rad 1703930). The membranes were blocked with Intercept Blocking Buffer (LI-COR cat. 927-70001) in LI-COR Western Blot boxes for 1 h at rt. The membranes were washed with 1× Tris-buffered saline-Tween-20 (TBST, 1× solution was made from 20×TBST solution, ThermoFisher Scientific cat. 28360) for 5 min 4 times. The membranes were incubated overnight at 4° C. in Intercept Blocking Buffer supplemented with primary antibodies (normally antibody:buffer 1:1000) and Tween-20. The membranes were washed with TBST for 5 min 4 times and were incubated with Intercept Blocking Buffer supplemented with IRDye 800CE Secondary Antibodies, IRDye 680RD Secondary Antibodies (LI-COR biosciences), Tween-20, and 10% SDS solution, for 1 h at rt. The membranes were then washed with TBST for 5 min 4 times and rinsed with deionized water before drying and scanning with Odyssey Dlx Amazing System (LI-COR). The immunoblots were finally quantified by the software.

[1] = KU-812 cells, read-out: DC50 S5 KU-812
[2] = MOLM-16 cells, numeric bound, read-out: DC50 S5 MOLM-16
[3] = MOLM-16 cells, class symbols, read-out: DC50 S5 MOLM-16
[4] = SKNO1 cells, read-out: DC50 S5 SKNO1

DC50 [1] [µM] | DC50 [2] [µM] | DC50 [3] [µM] | DC50 [4] [µM] | SMILES
> 10 | > 0.3 | – | – | CC(C)(C)[C@H](NC(=O)c1cc2cc(C(F)(F)P(=O)(O)O)ccc2s1)C(=O)N1CCC[C@H]1C(=O)N(CCC(=O)N1CCC(Nc2cccc3c2CN(C2CCC(=O)NC2=O)C3=O)CC1)c1ccc(Br)cc1 (stereo partly drawn) [Compound 615, ((2-(((2S)-1-((2S)-2-((4-bromophenyl)(3-(4-((2-(2,6-dioxopiperidin-3-yl)-1-oxoisoindolin-4-yl)amino)piperidin-1-yl)-3-oxopropyl)carbamoyl)pyrrolidin-1-yl)-3,3-dimethyl-1-oxobutan-2-yl)carbamoyl)benzo[b]thiophen-5-yl)difluoromethyl)phosphonic acid]
0.1 to 1 | – | < 0.1 | 0.1 to 1 | CC(C)(C)[C@H](NC(=O)c1cc2cc(C(F)(F)P(=O)(O)O)ccc2s1)C(=O)N1CCC[C@H]1C(=O)N(CCC(=O)NCCCC#Cc1cccc2c1CN(C1CCC(=O)NC1=O)C2=O)c1ccc(-c2cccs2)cc1 (stereo partly drawn) [Compound 648, ((2-(((2S)-1-((2S)-2-((3-((5-(2-(2,6-dioxopiperidin-3-yl)-1-oxoisoindolin-4-yl)pent-4-yn-1-yl)amino)-3-oxopropyl)(4-(thiophen-2-yl)phenyl)carbamoyl)pyrrolidin-1-yl)-3,3-dimethyl-1-oxobutan-2-yl)carbamoyl)benzo[b]thiophen-5-yl)difluoromethyl)phosphonic acid]
– | > 0.3 | – | – | CCN1CC[C@H]2CC[C@@H](C(=O)N(CCC(=O)N3CCC(Nc4cccc5c4CN(C4CCC(=O)NC4=O)C5=O)CC3)c3ccc(Br)cc3)N2C(=O)[C@@H](NC(=O)c2cc3cc(C(F)(F)P(=O)(O)O)ccc3s2)C1 (stereo partly drawn) [Compound 631, ((2-(((5S,8S,10aR)-8-((4-bromophenyl)(3-(4-((2-(2,6-dioxopiperidin-3-yl)-1-oxoisoindolin-4-yl)amino)piperidin-1-yl)-3-oxopropyl)carbamoyl)-3-ethyl-6-oxodecahydropyrrolo[1,2-a][1,5]diazocin-5-yl)carbamoyl)benzo[b]thiophen-5-yl)difluoromethyl)phosphonic acid]
– | > 0.3 | – | – | CC(C)(C)[C@H](NC(=O)c1cc2cc(C(F)(F)P(=O)(O)O)ccc2s1)C(=O)N1C[C@@H](OCc2ccccc2)C[C@H]1C(=O)N(CCC(=O)NCCCCC#Cc1cccc2c1CN(C1CCC(=O)NC1=O)C2=O)c1ccc(Br)cc1 (stereo partly drawn) [Compound 624, ((2-(((2S)-1-((2S,4S)-4-(benzyloxy)-2-((4-bromophenyl)(3-((6-(2-(2,6-dioxopiperidin-3-yl)-1-oxoisoindolin-4-yl)hex-5-yn-1-yl)amino)-3-oxopropyl)carbamoyl)pyrrolidin-1-yl)-3,3-dimethyl-1-oxobutan-2-yl)carbamoyl)benzo[b]thiophen-5-yl)difluoromethyl)phosphonic acid]
– | > 0.3 | – | 0.1 to 1 | CC(C)(C)[C@H](NC(=O)c1cc2cc(C(F)(F)P(=O)(O)O)ccc2s1)C(=O)N1CCC[C@H]1C(=O)N(CCC(=O)NCCCC#Cc1cccc2c1CN(C1CCC(=O)NC1=O)C2=O)c1ccc(I)cc1 (stereo partly drawn) [Compound 637, ((2-(((2S)-1-((2S)-2-((3-((5-(2-(2,6-dioxopiperidin-3-yl)-1-oxoisoindolin-4-yl)pent-4-yn-1-yl)amino)-3-oxopropyl)(4-iodophenyl)carbamoyl)pyrrolidin-1-yl)-3,3-dimethyl-1-oxobutan-2-yl)carbamoyl)benzo[b]thiophen-5-yl)difluoromethyl)phosphonic acid]
– | > 0.3 | – | > 10 | CC(C)(C)[C@H](NC(=O)c1cc2cc(C(F)(F)P(=O)(O)O)ccc2s1)C(=O)N1CCC[C@H]1C(=O)N(CCC(=O)NCCCC#Cc1cccc2c1CN(C1CCC(=O)NC1=O)C2=O)c1cccc(C(F)(F)F)c1 (stereo partly drawn) [Compound 645, ((2-(((2S)-1-((2S)-2-((3-((5-(2-(2,6-dioxopiperidin-3-yl)-1-oxoisoindolin-4-yl)pent-4-yn-1-yl)amino)-3-oxopropyl)(3-(trifluoromethyl)phenyl)carbamoyl)pyrrolidin-1-yl)-3,3-dimethyl-1-oxobutan-2-yl)carbamoyl)benzo[b]thiophen-5-yl)difluoromethyl)phosphonic acid]
> 10 | > 0.3 | – | 1 to 10 | CC(C)(C)[C@H](NC(=O)c1cc2cc(C(F)(F)P(=O)(O)O)ccc2s1)C(=O)N1CCC[C@H]1C(=O)N(CCC(=O)NCCCC#Cc1cccc2c1CN(C1CCC(=O)NC1=O)C2=O)c1ccccc1 (stereo partly drawn) [Compound 633, ((2-(((2S)-1-((2S)-2-((3-((5-(2-(2,6-dioxopiperidin-3-yl)-1-oxoisoindolin-4-yl)pent-4-yn-1-yl)amino)-3-oxopropyl)(phenyl)carbamoyl)pyrrolidin-1-yl)-3,3-dimethyl-1-oxobutan-2-yl)carbamoyl)benzo[b]thiophen-5-yl)difluoromethyl)phosphonic acid]
– | – | 0.1 to 1 | – | CC(C)(C)[C@H](NC(=O)c1cc2cc(C(F)(F)P(=O)(O)O)ccc2s1)C(=O)N1CCC[C@H]1C(=O)N(CCC(=O)NCCCCC#Cc1cccc2c1CN(C1CCC(=O)NC1=O)C2=O)c1ccc(Cl)cc1 (stereo partly drawn) [Compound 638, ((2-(((2S)-1-((2S)-2-((4-chlorophenyl)(3-((6-(2-(2,6-dioxopiperidin-3-yl)-1-oxoisoindolin-4-yl)hex-5-yn-1-yl)amino)-3-oxopropyl)carbamoyl)pyrrolidin-1-yl)-3,3-dimethyl-1-oxobutan-2-yl)carbamoyl)benzo[b]thiophen-5-yl)difluoromethyl)phosphonic acid]
1 to 10 | > 0.3 | – | 1 to 10 | CC(C)(C)[C@H](NC(=O)c1cc2cc(C(F)(F)P(=O)(O)O)ccc2s1)C(=O)N1CCC[C@H]1C(=O)N(CCC(=O)NCCCC#Cc1cccc2c1CN(C1CCC(=O)NC1=O)C2=O)c1ccc(Cl)cc1 (stereo partly drawn) [Compound 635, ((2-(((2S)-1-((2S)-2-((4-chlorophenyl)(3-((5-(2-(2,6-dioxopiperidin-3-yl)-1-oxoisoindolin-4-yl)pent-4-yn-1-yl)amino)-3-oxopropyl)carbamoyl)pyrrolidin-1-yl)-3,3-dimethyl-1-oxobutan-2-yl)carbamoyl)benzo[b]thiophen-5-yl)difluoromethyl)phosphonic acid]
– | > 0.3 | – | – | CCN1CC[C@H]2CC[C@@H](C(=O)N(CCC(=O)NCCCC#Cc3cccc4c3CN(C3CCC(=O)NC3=O)C4=O)c3ccc(Br)cc3)N2C(=O)[C@@H](NC(=O)c2cc3cc(C(F)(F)P(=O)(O)O)ccc3s2)C1 (stereo partly drawn) [Compound 627, ((2-(((5S,8S,10aR)-8-((4-bromophenyl)(3-((5-(2-(2,6-dioxopiperidin-3-yl)-1-oxoisoindolin-4-yl)pent-4-yn-1-yl)amino)-3-oxopropyl)carbamoyl)-3-ethyl-6-oxodecahydropyrrolo[1,2-a][1,5]diazocin-5-yl)carbamoyl)benzo[b]thiophen-5-yl)difluoromethyl)phosphonic acid]

SMILES | DC50 [1] [µM] | DC50 [2] [µM] | DC50 [3] [µM] | DC50 [4] [µM]
CC(C)(C)[C@H](NC(=O)c1cc2cc(C(F)(F)P(=O)(O)O)ccc2s1)C(=O)N1CCC[C@H]1C(=O)N(CC(=O)NCCCCC#Cc1cccc2c1CN(C1CCC(=O)NC1=O)C2=O)c1ccc(Cl)cc1 (stereo partly drawn) [Compound 641, ((2-(((2S)-1-((2S)-2-((4-chlorophenyl)(2-((6-(2-(2,6-dioxopiperidin-3-yl)-1-oxoisoindolin-4-yl)hex-5-yn-1-yl)amino)-2-oxoethyl)carbamoyl)pyrrolidin-1-yl)-3,3-dimethyl-1-oxobutan-2-yl)carbamoyl)benzo[b]thiophen-5-yl)difluoromethyl)phosphonic acid] | – | > 0.3 | – | > 10
